Results on twelve compounds are retold here after patent US20250188075A1, “SUBSTITUTED HETEROCYCLIC CSNK1 INHIBITORS” (The Broad Institute, Inc., priority 2022, published 2025).

pIC50: −log10 of the molar value. Like-named read-outs stand apart in the source and are kept apart here. Some results are limits rather than exact numbers.

Data set [1] addresses human CSNK1A1 (Homo sapiens (Human), UniProt P48729). The data set is described as follows: CSNK1A1 assay (ADP-Glo, 1 μM ATP). It counts as biochemical. As to conditions: median, read-out: CSNK1A1 Low ATP IC50 [mol/l] (median). The method, then: CSNK1A1-inhibitory activity of compounds of the present invention in presence of 1 μM adenosine-tri-phosphate (ATP) was quantified employing the CSNK1A1 assay as described in the following paragraphs. In essence, the enzyme activity is measured by quantification of the adenosine-di-phosphate (ADP), which is generated as a co-product of the enzyme reaction, via the “ADP-Glo™ Kinase Assay” kit from the company Promega. This detection system works as follows: In a first step the ATP not consumed in the kinase reaction is quantitatively converted to CAMP employing an adenylate cyclase (“ADP-Glo-reagent”), then the adenylate cyclase is stopped and the ADP generated in the kinase reaction converted to ATP which generates in a luciferase-based reaction a glow-luminescence signal (“Kinase Detection Reagent”).
Recombinant fusion protein of N-terminal Glutathion-S-Transferase (GST) and full-length human CSNK1A1, expressed by baculovirus infected insect cells and purified via Glutathion affinity chromatography, was purchased from Life Technologies (product no. PV4174) and used as enzyme. As substrate for the kinase reaction the biotinylated peptide biotin-Ahx-KRRRAL-pS-VASLPGL (C-terminus in amide form) was used which can be purchased e.g. from the company Biosyntan (Berlin-Buch, Germany).
For the assay 50 nl of a 100-fold concentrated solution of the test compound in DMSO was pipetted into a white 1536-well microtiter plate (Greiner Bio-One, Frickenhausen, Germany), 2 μL of a solution of CSNK1A1 in aqueous assay buffer [50 mM HEPES pH 7.5, 10% (v/v) glycerol, 10 mM MgCl2, 50 mM NaCl, 1 mM dithiothreitol, 0.01% (w/v) bovine serum albumin, 0.01% (v/v) Triton X-100] were added and the mixture was incubated for 15 min at 22° C. to allow pre-binding of the test compounds to the enzyme before the start of the kinase reaction. Then the kinase reaction was started by the addition of 3 μL of a solution of ATP (1.67 μM=>final conc. in the 5 μL assay volume is 1 μM) and peptide substrate (50 μM=>final conc. in the 5 μL assay volume is 30 μM) in assay buffer and the resulting mixture was incubated for a reaction time of 30 min at 22° C. The concentration of CSNK1A1 was adjusted depending of the activity of the enzyme lot and was chosen appropriate to have the assay in the linear range, a typical concentrations are about 0.0375 ng/μL. The reaction was stopped by the addition of 2.5 μL of “ADP-Glo-reagent” (1:1.5 fold diluted with water) and the resulting mixture was incubated at 22° C. for 1 h to convert the ATP not consumed in the kinase reaction completely to CAMP. Subsequently 2.5 μL of the “kinase detection reagent” (1.2 fold more concentrated than recommended by the producer) were added, the resulting mixture was incubated at 22° C. for 1 h and then the luminescence measured with a suitable measurement instrument (e.g. Viewlux™ from Perkin-Elmer). The amount of emitted light was taken as a measure for the amount of ADP generated and thereby for the activity of the CSNK1A1.
The data were normalised (enzyme reaction without inhibitor=0% inhibition, all other assay components but no enzyme=100% inhibition).

For data set [2], the system named is total-p53 in MCF-7 cells. The data set is described as follows: HTRF total-p53 in MCF-7 cells. The class given is cell-based. As to conditions: median, read-out: HTRF total-p53 MCF-7, IC50 - [mol/l] (median). Here is the method: Day 1: MCF-7 cells were seeded (10,000 cells in 12 μl/well) in a 384-well-Small Volume-plate (Greiner Bio One #784075) in culture medium (RPMI 1640; (Biochrom; #F 1275; without PhenolRed)+FCS (final: 10%); (Biochrom; #S 0415)+Insulin (bovine); (final: 10 μg/mL, Biochrom; #K 3510)+L-Alanyl-L-Glutamine; (final: 2 mM, Biochrom; #K 0302)+Natriumpyruvat; (final: 1 mM, Biochrom; #L 0473)+Non Essentiell Amino Acids; (final: 1×, Biochrom; #K 0293)). The cells were then treated with different compounds or DMSO (added with the HP Dispenser) and incubated for 2 h at 37° C. Following incubation, the cells were lysed in 4 μl of lysis buffer for 1 h shaking at RT. Finally, 4 μl of antibody solution was added and the samples are incubated overnight at RT, shaking.
Total-p53 was detected in a sandwich assay format using 2 different specific antibodies, one labeled with Eu3+-Cryptate (donor) and the second with d2 (acceptor). Kit: HTRF total p53 detection assay (Cisbio Cat: 64T53PEG).
Day 2: the plate was read on PHERAstar FS (BMG Labtech settings; optic module: HTRF; integration start: 60 us; integration time: 400 μs; flash lamp). IC50 values were calculated using the DRC application in ShiNy Analysis Platform-SNAP.”

In data set [3] the test system is LoVo cells. The data set is described as follows: LoVo cell proliferation assay, CTG method. It counts as cell-based. As to conditions: 96 h, median, read-out: 2D-PROLI LoVo CTG 96 h, IC50 - [mol/l] (median). The method, then: CELL PROLIFERATION ASSAY CTG METHOD, 384-well version: Day 1: plate 400 cells/30 μL/well in growth medium (RPMI 1640 (Gibco #61870-10; with Glutamax)+10% FBS) in 384-well black plates (Corning #3571). Plated sister wells in a separate plate for time zero determination. Incubated all plates overnight at 37° C. Day 2: added test compounds in serial dilutions using the HP D300 Digital Dispenser and incubate at 37° C. for 96 h. Measured time zero plate: add 30 μL/well CTG solution (Promega CellTiter-Glo solution (catalog #G7573)) to wells in time zero plate; incubated for 2 minutes in a orbital shaker to induce cell lysis; allowed the plate to incubate at room temperature for additional 10 min to stabilize luminescent signal and read luminescence on PheraStar (rapid mode-0.02 sec/well; GAIN 3000). Day 6: Added 30 μL/well CTG solution to all test wells, incubated for 2 minutes in a orbital shaker to induce cell lysis; allowed the plate to incubate at room temperature for additional 10 min to stabilize luminescent signal and read luminescence on PheraStar (rapid mode-0.02 sec/well; GAIN 3000). Proliferation IC50s were calculated using the DRC application in ShiNy Analysis Platform-SNAP.”

Data set [4] can be described thus: Solubility assay (thermodynamic solubility). It counts as physicochemical. Particulars: aqueous buffer; for solubility thermodynamic at 24 h: thermodynamic from solid, mean. Here is the method: Solubility of solid compound in aqueous buffer was determined by an equilibrium shake flask method. A saturated solution of drug in solvent (˜2 mg/ml solvent) was prepared and the solution was mixed for 24 h to ensure that equilibrium has been reached. The solution was centrifuged to remove the insoluble fraction and the concentration of the compound in solution was determined by HPLC-UV using a standard calibration curve (Kerns, E. H. et al., Solubility Methods in: Drug-like Properties: Concepts, Structure Design and Methods, p 276-286. Burlington, MA: Academic Press 2008).

The mark [5] stands for this setting: Homo sapiens, MCF7, 2 h incubation.
Where [6] appears, read: read-out: Thermodynamic Solubility [mg/l] (mean).
Where [7] appears, read: read-out: Thermodynamic Solubility [μmol/L] (mean).

Sequence of human CSNK1A1 (P48729 whole entry): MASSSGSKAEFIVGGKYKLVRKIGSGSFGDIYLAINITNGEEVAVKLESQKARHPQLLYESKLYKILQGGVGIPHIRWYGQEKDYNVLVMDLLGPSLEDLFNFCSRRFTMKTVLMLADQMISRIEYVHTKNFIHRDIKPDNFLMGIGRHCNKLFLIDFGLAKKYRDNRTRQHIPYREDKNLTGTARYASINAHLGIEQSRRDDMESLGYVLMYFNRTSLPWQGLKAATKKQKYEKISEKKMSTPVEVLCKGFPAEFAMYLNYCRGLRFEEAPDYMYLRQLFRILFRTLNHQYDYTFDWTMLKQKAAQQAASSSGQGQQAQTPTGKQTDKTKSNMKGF

With `O=C(Cc1cnc2ccccc2n1)Nc1cc(-c2[nH]c3cccnc3c2-c2ccccn2)ccn1` [Example 6, N-[4-[3-(2-pyridyl)-^1H-pyrrolo[3,2-b]pyridin-2-yl]-2-pyridyl]-2-quinoxalin-2-yl-acetamide], the pIC50 in data set [1] is 8.96; in data set [2] (setting [5]) it was 7.39; in data set [3] (Homo sapiens), 6.75.
As for `O=C(Cc1cc2ccccn2n1)Nc1cc(-c2[nH]c3cccnc3c2-c2ccccn2)ccn1` [Example 15, 2-pyrazolo[1,5-a]pyridin-2-yl-N-[4-[3-(2-pyridyl)-^1H-pyrrolo[3,2-b]pyridin-2-yl]-2-pyridyl]acetamide], the pIC50 in data set [1] was 8.97; in data set [2] (setting [5]), 7.16; in data set [3] (Homo sapiens), 6.72. Besides, the solubility thermodynamic at 24 h in data set [4] (setting [6]) was determined as 0.8 mg/L; in data set [4] (setting [7]), 1.8 µmol/L.
Take `O=C(Cc1ccon1)Nc1cc(-c2[nH]c3cccnc3c2-c2ccccn2)ccn1` [Example 10, 2-isoxazol-3-yl-N-[4-[3-(2-pyridyl)-^1H-pyrrolo[3,2-b]pyridin-2-yl]-2-pyridyl]acetamide]: the pIC50 in data set [1] is 8.71; in data set [2] (setting [5]), 6.58; in data set [3] (Homo sapiens) it was 5.49. For the same compound, the solubility thermodynamic at 24 h in data set [4] (setting [6]) was found to be 15.4 mg/L; in data set [4] (setting [7]), 38.9 µmol/L.
On the same counts, the results for `Cc1cc(CC(=O)Nc2cc(-c3[nH]c4cccnc4c3-c3ccccn3)ccn2)on1` [Example 13, 2-(3-methylisoxazol-5-yl)-N-[4-[3-(2-pyridyl)-^1H-pyrrolo[3,2-b]pyridin-2-yl]-2-pyridyl]acetamide] are 8.77, 6.82, 5.50, 65.9 mg/L and 161 µmol/L.
For `O=C(Nc1cc(-c2[nH]c3c(OCC(F)F)ncnc3c2-c2ccccn2)ccn1)[C@@H](CC(F)F)c1ccc(F)cc1` [Example C3, reference compound], the values for the pIC50 in data set [1], in data set [2] (2 h incubation) and in data set [3] were 8.51, 7.01 and 6.94, respectively. In data set [4] (24 h), the “Thermodynamic Solubility [mg/l] (mean)” value is <0.10 mg/L. Also, the “Thermodynamic Solubility [μmol/L] (mean)” value in data set [4] (24 h) is <0.18 µmol/L.
With `O=C(Cc1ccno1)Nc1cc(-c2[nH]c3cccnc3c2-c2ccccn2)ccn1` [Example 23, 2-isoxazol-5-yl-N-[4-[3-(2-pyridyl)-^1H-pyrrolo[3,2-b]pyridin-2-yl]-2-pyridyl]acetamide], the pIC50 was 8.85 in data set [1], 6.92 in data set [2] (setting [5]) and 5.27 in data set [3] (Homo sapiens). Also, the results for the solubility thermodynamic at 24 h in data set [4] (setting [6]) and in data set [4] (setting [7]) were 59.5 mg/L and 150 µmol/L, respectively.
The corresponding values for `Cc1noc(C)c1CC(=O)Nc1cc(-c2[nH]c3cccnc3c2-c2ccccn2)ccn1` [Example 12, 2-(3,5-dimethylisoxazol-4-yl)-N-[4-[3-(2-pyridyl)-^1H-pyrrolo[3,2-b]pyridin-2-yl]-2-pyridyl]acetamide] are 8.77, 6.69, 5.17, 9.9 mg/L and 23.3 µmol/L.
As for `O=C(Cc1ccns1)Nc1cc(-c2[nH]c3cccnc3c2-c2ccccn2)ccn1` [Example 22, 2-isothiazol-5-yl-N-[4-[3-(2-pyridyl)-^1H-pyrrolo[3,2-b]pyridin-2-yl]-2-pyridyl]acetamide], the pIC50 was 8.83 in data set [1], 6.92 in data set [2] (setting [5]) and 5.70 in data set [3] (Homo sapiens). In addition, the solubility thermodynamic at 24 h amounted to 12.6 mg/L in data set [4] (setting [6]) and 30.6 µmol/L in data set [4] (setting [7]).
On the same counts, the results for `Cc1cc(CC(=O)Nc2cc(-c3[nH]c4cccnc4c3-c3ccccn3)ccn2)n(C)n1` [Example 14] are 8.71, 6.84, 5.43, 4.6 mg/L and 10.9 µmol/L.
The corresponding values for `CC(C)n1ccc(CC(=O)Nc2cc(-c3[nH]c4cccnc4c3-c3ccccn3)ccn2)n1` [Example 28, 2-(1-isopropylpyrazol-3-yl)-N-[4-[3-(2-pyridyl)-^1H-pyrrolo[3,2-b]pyridin-2-yl]-2-pyridyl]acetamide] are 8.64, 6.89, 6.20, < 0.1 mg/L and < 0.23 µmol/L.
The corresponding values for `Cc1nn(C)c(C)c1CC(=O)Nc1cc(-c2[nH]c3cccnc3c2-c2ccccn2)ccn1` [Example 17, N-[4-[3-(2-pyridyl)-^1H-pyrrolo[3,2-b]pyridin-2-yl]-2-pyridyl]-2-(1,3,5-trimethylpyrazol-4-yl)acetamide] are 8.53, 6.70, 5.25, 14.9 mg/L and 34.1 µmol/L.
On to `O=C(Cc1cnco1)Nc1cc(-c2[nH]c3cccnc3c2-c2ccccn2)ccn1` [Example 4], for which the figures for the pIC50 in data set [2] (setting [5]) and in data set [3] (Homo sapiens) were 6.86 and 5.50, respectively. The figures for the solubility thermodynamic at 24 h in data set [4] (setting [6]) and in data set [4] (setting [7]) were 25.2 mg/L and 63.7 µmol/L, respectively.
